# Results taken from US12678509B2, “Inhibitor of apoptosis (IAP) protein antagonists” (Sanford Burnham Prebys Medical Discovery Institute, priority 2019, dated 2026).
# Experiments:
# [1] = Pharmacokinetic study in mice, snapshot PK; format: in vivo; settings: female, C57BL/6J, mouse, plasma, ip, one hour after i.p. injection of 10 mg/kg
# Procedure: All animal procedures were approved by the Sanford Burnham Prebys Medical Discovery Institute Institutional Animal Care and Use Committee and were performed according to the NIH guidelines for the Care and Use of Laboratory Animals. Adult female C57BL/6J were purchased from JAX laboratories and housed with free access to food and water on a 12 h light/dark cycle. Compounds were formulated in 5% DMSO, 10% Tween-80, and 85% dH2O and injected intraperitoneally (i.p.) into mice at doses of 10 mg/kg. For snapshot PK analysis, blood samples were collected retro-orbitally one hour after injection and for the time course PK study, blood samples were collected at 15 min, 30 min, 1 h, 2 h, 4 h, 6 h, 24 h time points. For the blood samples plasma was separated by centrifugation. Plasma samples were extracted with acetonitrile:water 4:1 with 0.1% formic acid containing indometacin as an internal standard. Samples were centrifuged and supernatants were diluted with acetonitrile:water and analyzed via LC-MS/MS on a Shimadzu Nexera X2 HPLC coupled to an AB Sciex 6500 QTRAP.
# Plasma exposure of selected compounds at 1 h compared.
# Plasma levels of parent compound determined one hour after i.p. injection of 10 mg/kg
# BIR3 domain of cIAP2 = BIR3 domain of cIAP2 (Homo sapiens, UniProt Q13489); assay: Fluorescence polarization assay; format: binding; settings: SMAC-FITC probe, Ki calculated from IC50
# Procedure: (§1) Binding of compounds to ML-IAP and BIR3 domain of cIAP1, cIAP2 and XIAP was determined by fluorescence polarization. Assay buffer was 100 mM KH2PO4 at pH 7.5, 50 μM ZnSO4, 1 mM TCEP (Tris(2-carboxyethyl)phosphine hydrochloride) and 50 nM SMAC-FITC probe (AbuRPF-K(5-Fam)-NH2) as described by Z. Nikolovska-Coleska et al.^9. cIAP1 and XIAP were present at 800 nM while cIAP2 and MLIAP were present at 1.5 μM. Compounds in 3-fold dilutions were added to the plates ranging from 30 μM to 1.5 nM. Assays were run in 384-well black plates read (Greiner Bio-One #784076) in an Analyst in fluorescence polarization mode with excitation at 485 nm and emission at 535 nm. Data was fit to a nonlinear regression curve in GraphPad Prism 8 to determine the IC50 values of the compounds. Ki's were then calculated from the IC50 values using equation: Ki=[I]50/([L]50/Kd+[P]0/Kd+1) formulated by Z. Nikolovska-Coleska et al.
# ML-IAP = target: T1, ML-IAP (Homo sapiens, UniProt Q96CA5); assay: Fluorescence polarization assay; format: binding; settings: SMAC-FITC probe, Ki calculated from IC50
# T1 sequence (Q96CA5 1-298): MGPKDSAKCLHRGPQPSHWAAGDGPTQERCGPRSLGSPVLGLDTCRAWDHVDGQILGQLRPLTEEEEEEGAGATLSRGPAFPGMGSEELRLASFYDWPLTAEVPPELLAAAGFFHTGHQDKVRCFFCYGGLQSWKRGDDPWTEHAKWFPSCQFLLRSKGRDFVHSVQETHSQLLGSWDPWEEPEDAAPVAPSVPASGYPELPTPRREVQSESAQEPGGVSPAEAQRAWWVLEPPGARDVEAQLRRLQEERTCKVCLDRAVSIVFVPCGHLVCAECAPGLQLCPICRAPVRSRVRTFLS
# Procedure: as §1
# BIR3 domain of cIAP1 = BIR3 domain of cIAP1 (Homo sapiens, UniProt Q13490); assay: Fluorescence polarization assay; format: binding; settings: SMAC-FITC probe, Ki calculated from IC50
# Procedure: as §1
# BIR3 domain of XIAP = BIR3 domain of XIAP (Homo sapiens, UniProt P98170); assay: Fluorescence polarization assay; format: binding; settings: SMAC-FITC probe, Ki calculated from IC50
# Procedure: as §1
# NB-4 = assay: Cell viability (CellTiter-Glo); format: cell-based, Human; settings: Homo sapiens, NB-4, 72 h, read-out: NB-4 Viability 72 h IC50
# Procedure: The compound 18a was tested in 16 different cell lines. For 6-day compound treatment 1700 cells per well were plated in a 384-well plate (Corning #781098) and incubated overnight at 37° C./5% CO2. […] Afterwards, 20 μL CellTiter-Glo reagent (Promega, #G7570) was added to each well outside of the incubator and the plates were read for luminescence on a Spark® multimode microplate reader (Tecan). Data was fit in GraphPad Prism 8 to a nonlinear regression curve to determine the IC50 of the compounds. […]
# [2] = tested on: latently infected cell line Jurkat 2D10; assay: HIV Jurkat 2D10 cells GFP+ assay (reversal of HIV latency); format: cell-based; settings: Homo sapiens, Jurkat, 48 h, read-out: Jurkat 2D10 GFP+ EC50
# Procedure: Several compounds (Table 5) were tested for their efficacy in the reversal of HIV latency in the latently infected cell line Jurkat 2D10. Jurkat 2D10 cells were treated with different doses of the compounds, or one of the following compounds: BV-6, SM-164, Birinapant, LCL-161, GDC-0152, AT-406 for 48 hours. Reversal of HW latency was evaluated by analyzing GFP expression using flow cytometry. Induction of GFP expression was compared to baseline GFP levels detected in the absence of treatment.
# SKOV-3 = assay: Cell viability (CellTiter-Glo), 48 hrs; format: cell-based; settings: Homo sapiens, SK-OV-3, 48 h, read-out: SKOV-3 Viability 48 h IC50
# Procedure: One thousand seven hundred cells per well were plated in a 384 well plate and incubated overnight at 37° C./5% CO2. The following day, compounds in 10-fold dilutions were added to the plates and the plates returned to the incubator for 48 hrs. 48 hrs later, plates were removed to the bench and 20 μL CellTiter-Glo reagent was added to each well and the plates were read for luminescence on a Spark® multimode microplate reader (Tecan). Data were fit using PRISM to a nonlinear regression curve to determine the IC50 of the compounds.
# MOLM 13 = assay: Cell viability (CellTiter-Glo), 6-day compound treatment; format: cell-based, Human; settings: Homo sapiens, MOLM-13, 144 h, read-out: MOLM 13 Viability 6 d IC50
# Procedure: The compound 18a was tested in 16 different cell lines. For 6-day compound treatment 1700 cells per well were plated in a 384-well plate (Corning #781098) and incubated overnight at 37° C./5% CO2. The following day, compounds in 10-fold dilutions were added to the plates and the plates were incubated for 6 days. Afterwards, 20 μL CellTiter-Glo reagent (Promega, #G7570) was added to each well outside of the incubator and the plates were read for luminescence on a Spark® multimode microplate reader (Tecan). Data was fit in GraphPad Prism 8 to a nonlinear regression curve to determine the IC50 of the compounds. […]
# AML-SH-075 = assay: Cell viability in patient derived AML samples (CellTiterGlo, 72 h); format: cell-based, human; settings: for IC50: Homo sapiens, 72 h, read-out: AML-SH-075 IC50; for AML-SH-075 Efficacy: patient derived AML sample AML-SH-075, 72 h, cell viability at max. concentration
# Procedure: (§2) Patient AML samples were gathered (under IRB 13-6180) from Scripps MD Anderson, La Jolla, CA Fresh blood samples were subjected to gradient density centrifugation with Ficoll-Paque™ PLUS (17-1440-02, GE Healthcare) and peripheral blood mononuclear cells purified as per manufacturer's protocol.
# (§3) 75 nL of 1000× serially diluted IAP inhibitors were spotted in triplicate onto 384-well tissue culture treated plates (Greiner) using a Labcyte Echo acoustic dispensing device. Patient-derived AML cells were maintained in mTeSR1^+1× supplements (Stemcell Technologies) and penicillin/streptomycin/L-glutamine (Omega Scientific Inc.) and Fungizone (HyClone). 25 μL of cell dilution were plated into 384-well plate containing the drugs and incubated for 72 h. Cell viability was assessed by adding 25 μL CellTiterGlo (Promega Corp.) on a Synergy 2 plate reader with Gen5 software (Biotek). % viability was calculated by normalizing luminescence to vehicle only controls (DMSO) in Microsoft Excel and plotted using GraphPad Prism 8. The IC50 values were calculated using log(inhibitor) vs. response—Variable slope (four parameters) equation. (FIG. 6)
# AML-SH-065 = assay: as above; format: cell-based, human; settings: for IC50: Homo sapiens, 72 h, read-out: AML-SH-065 IC50; for AML-SH-065 Efficacy: patient derived AML sample AML-SH-065, 72 h, cell viability at max. concentration
# Procedure: as §2, §3
# AML-SH-074 = assay: as above; format: cell-based, human; settings: for IC50: Homo sapiens, 72 h, read-out: AML-SH-074 IC50; for AML-SH-074 Efficacy: patient derived AML sample AML-SH-074, 72 h, cell viability at max. concentration
# Procedure: as §2, §3
# Sequence of BIR3 domain of cIAP1 (Q13490 253-363 limits assumed): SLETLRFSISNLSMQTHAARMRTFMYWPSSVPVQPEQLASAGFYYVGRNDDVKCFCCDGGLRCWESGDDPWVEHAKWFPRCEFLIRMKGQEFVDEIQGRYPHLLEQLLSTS
# Sequence of BIR3 domain of cIAP2 (Q13489 238-349 limits assumed): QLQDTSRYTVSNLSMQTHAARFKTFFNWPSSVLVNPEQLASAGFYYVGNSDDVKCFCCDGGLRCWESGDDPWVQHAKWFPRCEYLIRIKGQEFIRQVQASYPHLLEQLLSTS
# Sequence of BIR3 domain of XIAP (P98170 241-356 limits assumed): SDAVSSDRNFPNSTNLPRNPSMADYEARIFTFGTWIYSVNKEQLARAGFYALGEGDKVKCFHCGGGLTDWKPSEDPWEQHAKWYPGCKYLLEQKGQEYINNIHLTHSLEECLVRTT
Compound,concentration at 1 h [1] [nM],Ki (BIR3 domain of cIAP2) [nM],Ki (ML-IAP) [nM],Ki (BIR3 domain of cIAP1) [nM],Ki (BIR3 domain of XIAP) [nM],IC50 (NB-4) [nM],EC50 [2] [nM],IC50 (SKOV-3) [nM],IC50 (MOLM 13) [nM],IC50 (AML-SH-075) [nM],AML-SH-075 Efficacy (AML-SH-075),IC50 (AML-SH-065) [nM],AML-SH-065 Efficacy (AML-SH-065),IC50 (AML-SH-074) [nM],AML-SH-074 Efficacy (AML-SH-074)
"CN[C@@H](C)C(=O)N[C@H]1CCS[C@H]2CC(C)(C)[C@@H](C(=O)N[C@H]3c4ccccc4C[C@H]3OCCCCCCO[C@@H]3Cc4ccccc4[C@@H]3NC(=O)[C@H]3N4C(=O)[C@@H](NC(=O)[C@H](C)NC)CCS[C@H]4CC3(C)C)N2C1=O [Compound 18b, (2S)-1-{[(4S,7S,9aS)-7-({(1S,2R)-2-[(6-{[(1S,2R)-1-({[(4S,7S,9aS)-8,8-Dimethyl-4-{[(2S)-2-(methylammonio)propanoyl]amino}-5-oxooctahydropyrrolo[2,1-b][1,3]thiazepin-7-yl]carbonyl}amino)-2,3-dihydro-1H-inden-2-yl]oxy}hexyl)oxy]-2,3-dihydro-1H-inden-1-yl}carbamoyl)-8,8-dimethyl-5-oxooctahydropyrrolo[2,1-b][1,3]thiazepin-4-yl]amino}-N-methyl-1-oxopropan-2-ammonium dichloride]",714,50 to 100,50 to 100,≤ 50,≤ 50,< 10,1 to 10,< 10,100 to 1000,–,–,–,–,–,–
CN[C@@H](C)C(=O)N[C@H]1CCS[C@H]2CC(C)(C)[C@@H](C(=O)N[C@H]3c4ccccc4C[C@H]3OCC#Cc3ccc(C#CCO[C@@H]4Cc5ccccc5[C@@H]4NC(=O)[C@H]4N5C(=O)[C@@H](NC(=O)[C@H](C)NC)CCS[C@H]5CC4(C)C)cc3)N2C1=O [Compound 18c],1310,50 to 100,50 to 100,≤ 50,≤ 50,< 10,1 to 10,< 10,10 to 100,1000 to 10000,I (I < 10%),10 to 100,I (I < 10%),100 to 1000,I (I < 10%)
"CN[C@@H](C)C(=O)N[C@H]1CCS[C@H]2CC(C)(C)[C@@H](C(=O)N[C@H](CCOCC#CC#CCOCC[C@@H](NC(=O)[C@H]3N4C(=O)[C@@H](NC(=O)[C@H](C)NC)CCS[C@H]4CC3(C)C)c3ccccc3)c3ccccc3)N2C1=O [Compound 18i, (2S)-1-{[(4S,7S,9aS)-74{(1R)-3-[(6-{[(3R)-3-({[(4S,7S,9aS)-8,8-Dimethyl-4-{[(2S)-2-(methylammonio)propanoyl]amino}-5-oxooctahydropyrrolo[2,1-b][1,3]thiazepin-7-yl]carbonyl}amino)-3-phenylpropyl]oxy}hexa-2,4-diyn-1-yl)oxy]-1-phenylpropyl}carbamoyl)-8,8-dimethyl-5-oxooctahydropyrrolo[2,1-b][1,3]thiazepin-4-yl]amino}-N-methyl-1-oxopropan-2-ammonium dichloride]",1240,50 to 100,50 to 100,≤ 50,50 to 100,< 10,10 to 100,< 10,100 to 1000,–,–,–,–,–,–
CN[C@@H](C)C(=O)N[C@H]1CCS[C@H]2CC3(CC=CC3)[C@@H](C(=O)N[C@H]3c4ccccc4C[C@H]3OCC#CC#CCO[C@@H]3Cc4ccccc4[C@@H]3NC(=O)[C@H]3N4C(=O)[C@@H](NC(=O)[C@H](C)NC)CCS[C@H]4CC34CC=CC4)N2C1=O [Compound 18o],5180,50 to 100,100 to 200,≤ 50,≤ 50,–,1 to 10,< 10,10 to 100,–,–,–,–,–,–
"CN[C@@H](C)C(=O)N[C@H]1CCO[C@H]2CC(C)(C)[C@@H](C(=O)N[C@H]3c4ccccc4C[C@H]3OCC#CC#CCO[C@@H]3Cc4ccccc4[C@@H]3NC(=O)[C@H]3N4C(=O)[C@@H](NC(=O)[C@H](C)NC)CCO[C@H]4CC3(C)C)N2C1=O [Compound 18q, [(1S)-1-{[(4S,7S,9aS)-7-{[(1S,2R)-2-[(6-{[(1S,2R)-1-[(4S,7S,9aS)-8,8-Dimethyl-4-[(2S)-2-(methylazaniumyl)propanamido]-5-oxo-octahydropyrrolo[2,1-b][1,3]oxazepine-7-amido]-2,3-dihydro-1H-inden-2-yl]oxy}hexa-2,4-diyn-1-yl)oxy]-2,3-dihydro-1H-inden-1-yl]carbamoyl}-8,8-dimethyl-5-oxo-octahydropyrrolo[2,1-b][1,3]oxazepin-4-yl]carbamoyl}ethyl](methyl)azanium dichloride]",1870,50 to 100,50 to 100,50 to 100,≤ 50,–,100 to 1000,< 10,10 to 100,10 to 100,I (I < 10%),10 to 100,I (I < 10%),100 to 1000,I (I < 10%)
